Data taken from patent publication US9089572B2, “Inhibitors of p97” (California Institute of Technology, priority 2008, dated 2015).
Where “and” joins values, the source holds several entries; their conditions need not be identical. Identical values can stand only once.

Columns and labels:
[1] = test system: HEK293 cells that stably expressed TCR-GFP; assay: Accumulation of ERAD reporter TCR-alpha-GFP; type: cell-based; details: 2 h at 37° C., fluorescence microscopy
Description: Since p97 has a well-established role in ERAD, it was also determined whether compound 2 affects the accumulation of an ERAD-reporter, TCR-alpha-GFP. HEK293 cells that stably expressed TCR-GFP were treated with MG132 (see FIG. 19), compound 1 or compound 2 (FIG. 20) at the indicated concentrations for 2 h at 37° C. prior to being imaged by fluorescence microscopy to determine TCR-GFP accumulation. […] It was thus concluded that compound 2 inhibits p97 in cells, resulting in the accumulation of both soluble and insoluble high molecular weight ubiquitin conjugates and UPS substrates whose degradation depends upon p97.
HEK293 cells that stably expressed TCR-GFP were treated with the Velcade (FIG. 30) or compound 8 (FIG. 31) at the indicated concentrations for 2 h at 37° C. prior to being imaged by fluorescence microscopy to quantify TCR-GFP accumulation.

MRC5-SV40 = assay: CellTiter-Glo growth inhibition, MRC5 cells engineered to express SV40; type: cell-based
Yeast Cdc48 = Yeast Cdc48 (Saccharomyces cerevisiae, UniProt P25694); assay: In vitro ATP hydrolysis, yeast Cdc48; type: biochemical
Description: (§1) Compounds were tested for their ability to inhibit the ATPase activity of purified wild type murine p97 and T532C-Cdc48, a mutant of yeast Cdc48 in which the residue analogous to cysteine 522, threonine 532, was converted to cysteine.
(§2) To determine whether cysteine 522 is necessary for inhibition of p97 by compound 2, a mutant of p97 was constructed in which cysteine 522 was converted to either alanine (C522A-mp97) or threonine (C522T-mp97). The IC50 values of compound 2 were measured the against various enzymes during a 20-minute preincubation (see Table 2). Mutation of cysteine 522 in p97 to either alanine or threonine decreased sensitivity to compound 2 by greater than 100-fold. On the other hand, yeast Cdc48, which normally is quite resistant to compound 2, became nearly 30-fold more sensitive to the compound upon introduction of a cysteine in place of threonine 532.

Human 19S ATPase = assay: In vitro ATP hydrolysis, 19S ATPase of the 26S proteasome; type: biochemical; details: 20-minute preincubation
Description: as §2
To further address the specificity of inhibition by compound 2, its activity against two other AAA ATPases, NSF and the 26S proteasome, was assayed. Although NSF is known to be sensitive to thiol-reactive agents, it was more than 100-fold less sensitive to compound 2 than p97 (Table 2). […] The results with NSF and the 26S proteasome are noteworthy because both the active D1 domain of NSF and the Rpt3 subunit of the 26S proteasome have a cysteine in the position analogous to cysteine 522 of p97 (FIG. 3).

Molt4 = assay: MTT cell growth assay, Molt4; type: cell-based; details: Homo sapiens, MOLT-4, 48 or 72 h, read-out: Cell line inhibition of growth GI50 Molt4
Description: (§3) To probe further the effect of compound 2 and related compounds 1, 3, 5, 6 and 7, various concentrations of these compounds were added to 13 different cell lines and incubated for 48 or 72 h. An MTT assay was then performed to evaluate cell growth and survival.

293 = assay: MTT cell growth assay, 293; type: cell-based; details: Homo sapiens, HEK293, 48 or 72 h, read-out: Cell line inhibition of growth GI50 293
Description: as §3

LNCaP = assay: MTT cell growth assay, LNCaP; type: cell-based; details: Homo sapiens, 48 or 72 h, read-out: Cell line inhibition of growth GI50 LNCaP
Description: as §3

wild type murine p97 = wild type murine p97 (Mus musculus, UniProt Q01853); assay: In vitro ATP hydrolysis (malachite green ATPase assay), wild type murine p97; type: biochemical
Description: as §1

RPMI8226 cells = assay: Accumulation of high molecular weight ubiquitin conjugates (anti-ubiquitin immunoblot), RPMI8226 cells; type: cell-based; details: 1 h at 37° C.
Source text: (§4) To evaluate whether compound 2 can target p97 activity in cells, we sought to determine whether this compound induces accumulation of high molecular weight ubiquitin conjugates, since it is known that RNAi-mediated knockdown of p97 in mammalian cells has this effect (Wojcik, C. et al. J. Cell Sci. (2004) 117, 281-292). As a positive control for this experiment, the proteasome inhibitor MG132 was used. […] The cells were then harvested, lysed, and centrifuged to generate soluble and insoluble fractions. These fractions were then immunoblotted with anti-ubiquitin antibodies to detect accumulation of high molecular weight conjugates. Blots were also probed with anti-PSTAIRE antibodies as a loading control. […] This effect is particularly pronounced in the insoluble fraction.
(§5) To evaluate whether compound 8 can target p97 activity in cells, it was determined whether this compound induces accumulation of high molecular weight ubiquitin conjugates, since it is known that RNAi-mediated knockdown of p97 in mammalian cells has this effect (Wojcik, C. et al. J. Cell Sci. (2004) 117, 281-292). The proteasome inhibitor bortezomib (velcade) was employed as a positive control for this experiment. HeLa (FIG. 25) or RPMI8226 (FIG. 26) cells were treated with Velcade, compound 8, or a combination thereof for 1 h at 37° C. The cells were then harvested and cell lysates were immunoblotted with anti-ubiquitin antibodies to detect accumulation of high molecular weight conjugates. Blots were also probed with anti-PSTAIRE antibodies as a loading control.

HeLa cells = assay: Accumulation of high molecular weight ubiquitin conjugates (anti-ubiquitin immunoblot), HeLa cells; type: cell-based; details: 1 h at 37° C.
Source text: as §4, §5

RL = assay: MTT cell growth assay, RL; type: cell-based; details: Homo sapiens, 48 or 72 h, read-out: Cell line inhibition of growth GI50 RL
Description: as §3

MDAMB-231 = assay: MTT cell growth assay, MDAMB-231; type: cell-based; details: Homo sapiens, MDA-MB-231, 48 or 72 h, read-out: Cell line inhibition of growth GI50 MDAMB-231
Description: as §3

DU145 = assay: MTT cell growth assay, DU145; type: cell-based; details: Homo sapiens, DU-145, 48 or 72 h, read-out: Cell line inhibition of growth GI50 DU145
Description: as §3

PC3 = assay: MTT cell growth assay, PC3; type: cell-based; details: Homo sapiens, PC-3, 48 or 72 h, read-out: Cell line inhibition of growth GI50 PC3
Description: as §3

Human 26S proteasome = assay: Hydrolysis of fluorogenic proteasome substrate LLVY-AMC by purified 26S proteasome; type: biochemical; details: 19 nM 26S proteasome, 30 min preincubation, 60 μM LLVY-AMC
Description: Purified human 26S proteasome (19 nM) was incubated with either DMSO, MG132 or compound 2 for 30 min at room temperature and fluorogenic proteasome substrate LLVY-AMC (60 μM) was added to initiate the reaction. Fluorescence intensity was monitored every 3 min over 30 min.

wild type murine p97, sequence (Q01853 whole entry): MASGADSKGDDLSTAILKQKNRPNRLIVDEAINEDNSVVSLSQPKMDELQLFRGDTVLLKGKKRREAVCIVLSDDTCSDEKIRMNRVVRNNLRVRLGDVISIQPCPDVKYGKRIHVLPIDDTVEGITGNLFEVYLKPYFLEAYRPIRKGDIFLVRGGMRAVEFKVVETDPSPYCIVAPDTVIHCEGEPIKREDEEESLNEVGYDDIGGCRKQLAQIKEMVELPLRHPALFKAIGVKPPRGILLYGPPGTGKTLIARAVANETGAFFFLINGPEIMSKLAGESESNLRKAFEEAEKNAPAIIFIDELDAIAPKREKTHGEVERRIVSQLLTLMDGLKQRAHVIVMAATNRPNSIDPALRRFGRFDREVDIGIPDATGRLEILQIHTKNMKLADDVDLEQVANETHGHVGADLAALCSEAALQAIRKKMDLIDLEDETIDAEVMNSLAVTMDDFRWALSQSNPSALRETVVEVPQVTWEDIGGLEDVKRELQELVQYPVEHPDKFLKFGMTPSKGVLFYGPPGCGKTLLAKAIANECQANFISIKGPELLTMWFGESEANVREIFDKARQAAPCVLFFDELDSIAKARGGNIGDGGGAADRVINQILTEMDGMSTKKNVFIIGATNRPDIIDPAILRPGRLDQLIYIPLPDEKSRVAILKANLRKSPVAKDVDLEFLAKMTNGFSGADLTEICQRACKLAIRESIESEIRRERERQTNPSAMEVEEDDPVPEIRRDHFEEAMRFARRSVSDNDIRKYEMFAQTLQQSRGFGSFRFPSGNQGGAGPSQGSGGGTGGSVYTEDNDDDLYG
Human 19S ATPase, sequence (P17980 whole entry): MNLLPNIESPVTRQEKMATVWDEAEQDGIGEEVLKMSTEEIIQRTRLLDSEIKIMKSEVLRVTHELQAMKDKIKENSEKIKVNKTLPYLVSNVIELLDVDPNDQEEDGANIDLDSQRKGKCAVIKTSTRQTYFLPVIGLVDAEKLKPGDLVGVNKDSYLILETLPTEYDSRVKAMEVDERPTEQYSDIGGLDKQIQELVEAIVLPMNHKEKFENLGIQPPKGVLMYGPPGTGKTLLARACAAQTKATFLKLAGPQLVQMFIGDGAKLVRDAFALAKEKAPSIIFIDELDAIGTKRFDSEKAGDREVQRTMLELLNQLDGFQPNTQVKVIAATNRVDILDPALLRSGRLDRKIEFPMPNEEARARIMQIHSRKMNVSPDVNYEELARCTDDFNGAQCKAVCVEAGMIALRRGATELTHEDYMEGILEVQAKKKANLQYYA
Human 19S ATPase, sequence (P62333 whole entry, further chain): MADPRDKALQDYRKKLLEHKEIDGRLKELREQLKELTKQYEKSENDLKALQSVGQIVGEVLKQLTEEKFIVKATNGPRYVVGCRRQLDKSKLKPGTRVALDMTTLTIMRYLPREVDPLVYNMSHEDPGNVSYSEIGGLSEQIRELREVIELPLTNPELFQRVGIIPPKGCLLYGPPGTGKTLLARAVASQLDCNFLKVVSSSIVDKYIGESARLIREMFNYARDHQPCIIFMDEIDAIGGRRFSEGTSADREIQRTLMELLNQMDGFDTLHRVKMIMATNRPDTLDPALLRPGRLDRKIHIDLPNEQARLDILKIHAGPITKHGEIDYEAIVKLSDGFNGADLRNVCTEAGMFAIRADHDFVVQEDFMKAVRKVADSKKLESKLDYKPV
Human 19S ATPase, sequence (P62195 2-406, further chain): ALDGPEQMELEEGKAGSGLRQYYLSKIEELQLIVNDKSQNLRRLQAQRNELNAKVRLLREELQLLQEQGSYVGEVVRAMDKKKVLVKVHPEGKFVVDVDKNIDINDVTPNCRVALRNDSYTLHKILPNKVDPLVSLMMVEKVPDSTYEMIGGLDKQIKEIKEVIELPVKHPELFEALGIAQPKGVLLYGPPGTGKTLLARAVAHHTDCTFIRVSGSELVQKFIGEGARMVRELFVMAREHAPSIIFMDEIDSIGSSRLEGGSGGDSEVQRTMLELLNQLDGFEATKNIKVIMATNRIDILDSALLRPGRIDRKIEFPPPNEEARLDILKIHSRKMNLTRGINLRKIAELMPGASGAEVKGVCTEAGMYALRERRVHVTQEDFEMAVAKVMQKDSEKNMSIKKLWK
Human 19S ATPase, sequence (P35998 2-433, further chain): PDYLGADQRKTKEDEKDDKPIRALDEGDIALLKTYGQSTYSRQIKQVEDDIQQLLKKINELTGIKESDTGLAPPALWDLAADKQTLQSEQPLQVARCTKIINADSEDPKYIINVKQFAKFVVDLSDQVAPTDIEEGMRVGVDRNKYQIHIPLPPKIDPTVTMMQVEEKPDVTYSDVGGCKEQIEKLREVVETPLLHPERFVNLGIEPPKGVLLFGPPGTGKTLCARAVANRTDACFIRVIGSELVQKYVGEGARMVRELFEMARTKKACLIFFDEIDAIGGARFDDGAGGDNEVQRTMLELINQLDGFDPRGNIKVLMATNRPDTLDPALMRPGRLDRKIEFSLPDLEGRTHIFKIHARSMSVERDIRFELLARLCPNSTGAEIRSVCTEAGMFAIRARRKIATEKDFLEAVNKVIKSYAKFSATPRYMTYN
Human 19S ATPase, sequence (P62191 2-440, further chain): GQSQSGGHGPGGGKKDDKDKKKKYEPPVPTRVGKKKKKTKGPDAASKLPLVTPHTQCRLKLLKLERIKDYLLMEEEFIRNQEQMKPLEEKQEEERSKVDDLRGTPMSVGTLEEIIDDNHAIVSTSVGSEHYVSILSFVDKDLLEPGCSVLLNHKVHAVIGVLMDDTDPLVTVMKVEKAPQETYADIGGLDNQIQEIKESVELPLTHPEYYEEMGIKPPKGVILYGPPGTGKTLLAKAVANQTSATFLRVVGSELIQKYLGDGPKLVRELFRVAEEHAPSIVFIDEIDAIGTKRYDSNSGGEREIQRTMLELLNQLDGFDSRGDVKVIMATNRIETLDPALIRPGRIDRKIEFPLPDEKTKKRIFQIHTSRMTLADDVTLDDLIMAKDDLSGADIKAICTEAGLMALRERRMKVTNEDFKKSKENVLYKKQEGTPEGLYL
Human 19S ATPase, sequence (P43686 whole entry, further chain): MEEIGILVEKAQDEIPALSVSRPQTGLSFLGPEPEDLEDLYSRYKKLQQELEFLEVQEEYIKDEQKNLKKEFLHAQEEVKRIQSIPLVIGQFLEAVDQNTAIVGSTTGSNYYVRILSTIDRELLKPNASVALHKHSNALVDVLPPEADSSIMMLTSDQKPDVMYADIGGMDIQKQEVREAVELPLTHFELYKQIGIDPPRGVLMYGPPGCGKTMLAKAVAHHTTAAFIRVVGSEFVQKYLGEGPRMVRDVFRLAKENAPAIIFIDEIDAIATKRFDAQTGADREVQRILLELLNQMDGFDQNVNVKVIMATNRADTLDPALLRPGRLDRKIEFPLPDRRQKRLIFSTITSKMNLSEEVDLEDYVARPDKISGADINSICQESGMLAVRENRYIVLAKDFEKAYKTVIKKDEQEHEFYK
Yeast Cdc48, sequence (P25694 whole entry): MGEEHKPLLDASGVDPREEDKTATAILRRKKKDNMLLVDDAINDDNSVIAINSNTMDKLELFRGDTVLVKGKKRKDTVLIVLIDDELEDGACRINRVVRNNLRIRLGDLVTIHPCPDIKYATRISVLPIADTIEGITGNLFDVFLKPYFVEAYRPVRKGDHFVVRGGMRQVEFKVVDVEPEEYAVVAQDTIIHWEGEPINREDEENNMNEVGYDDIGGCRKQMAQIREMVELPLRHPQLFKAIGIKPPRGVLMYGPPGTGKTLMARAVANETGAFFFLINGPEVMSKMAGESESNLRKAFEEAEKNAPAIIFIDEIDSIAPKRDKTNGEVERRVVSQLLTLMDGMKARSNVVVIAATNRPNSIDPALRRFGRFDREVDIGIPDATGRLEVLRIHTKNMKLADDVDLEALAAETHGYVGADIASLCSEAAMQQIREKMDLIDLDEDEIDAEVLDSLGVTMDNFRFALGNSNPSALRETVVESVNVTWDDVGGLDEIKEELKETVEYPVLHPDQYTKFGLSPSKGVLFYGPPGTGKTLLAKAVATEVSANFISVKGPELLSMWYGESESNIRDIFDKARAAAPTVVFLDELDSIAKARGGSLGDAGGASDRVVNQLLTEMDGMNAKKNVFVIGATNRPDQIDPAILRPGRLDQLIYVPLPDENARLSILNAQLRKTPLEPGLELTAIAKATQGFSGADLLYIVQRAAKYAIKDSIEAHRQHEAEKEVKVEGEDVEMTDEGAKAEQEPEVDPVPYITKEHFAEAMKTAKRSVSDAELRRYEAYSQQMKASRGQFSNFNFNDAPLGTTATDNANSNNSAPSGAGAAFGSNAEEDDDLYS

Q: How did the “accumulation of TCR-alpha-GFP” value [1] turn out when C=CC(=O)Nc1ncnc2c1c(-c1ccccc1)nn2C(C)(C)C [Compound 2] was run?
A: Its value is “substantial TCR-alpha-GFP accumulation”.

Q: And the GI50 (MRC5-SV40; Homo sapiens, MRC5, 48 h at 37° C., CellTiter-Glo, read-out: Cell line inhibition of growth GI50 MRC5-SV40)?
A: The GI50 was 7300 ± 5500 nM.

Q: What about the “greater sensitivity of SV40-transformed cells than WT cell line” value (MRC5-SV40; MRC5-SV40 vs MRC5-WT GI50) of the same compound?
A: The value was 2 fold.

Q: What about the IC50 (Yeast Cdc48) of the same compound?
A: The IC50 was 376000 ± 95000 nM.

Q: And the IC50 (Human 19S ATPase)?
A: The IC50 was 75000 nM.

Q: And the GI50 (Molt4)?
A: The GI50 was 1100 ± 500 nM.

Q: And the GI50 293?
A: The GI50 was 5100 ± 2300 nM.

Q: What about the GI50 (LNCaP) of the same compound?
A: The GI50 was 2700 ± 1200 nM.

Q: And the IC50 (wild type murine p97; 200 nM p97, 20 min preincubation at 23° C., malachite green, read-out: In vitro ATP Hydrolysis Activity IC50 WT-mP97)?
A: The IC50 was 600 nM and 620 nM.

Q: What about the “inhibitory effect on p97 with nucleophiles in the preincubation” value (wild type murine p97; cysteine or dithiothreitol in the preincubation buffer) of the same compound?
A: Its value is “counteracted”.

Q: And the “accumulation of high molecular weight ubiquitin conjugates, RPMI8226 cells” value (RPMI8226 cells)?
A: The value was “caused accumulation of high molecular weight ubiquitin conjugates”.

Q: And the “accumulation of high molecular weight ubiquitin conjugates, HeLa cells” value (HeLa cells)?
A: Its value is “caused accumulation of high molecular weight ubiquitin conjugates”.

Q: And the GI50 (RL)?
A: Its GI50 is 2100 ± 1100 nM.

Q: And the GI50 (MDAMB-231)?
A: The GI50 was 1700 ± 300 nM.

Q: What about the GI50 (DU145) of the same compound?
A: Its GI50 is 3600 ± 1500 nM.

Q: What about the GI50 (PC3) of the same compound?
A: The GI50 was 2200 ± 1100 nM.

Q: What about the “inhibition of hydrolysis of proteasome substrate LLVY-AMC” value (Human 26S proteasome) of the same compound?
A: Its value is “does not inhibit hydrolysis”.
